These results are taken from US7001907B2, “Peptide-containing α-ketoamide cysteine and serine protease inhibitors” (Cephaon, Inc., priority 1997, dated 2006).

The experiment deals with T1, Recombinant human calpain I (Homo sapiens, UniProt P07384).
T1 construct: made in house
T1 sequence (P07384 1-714): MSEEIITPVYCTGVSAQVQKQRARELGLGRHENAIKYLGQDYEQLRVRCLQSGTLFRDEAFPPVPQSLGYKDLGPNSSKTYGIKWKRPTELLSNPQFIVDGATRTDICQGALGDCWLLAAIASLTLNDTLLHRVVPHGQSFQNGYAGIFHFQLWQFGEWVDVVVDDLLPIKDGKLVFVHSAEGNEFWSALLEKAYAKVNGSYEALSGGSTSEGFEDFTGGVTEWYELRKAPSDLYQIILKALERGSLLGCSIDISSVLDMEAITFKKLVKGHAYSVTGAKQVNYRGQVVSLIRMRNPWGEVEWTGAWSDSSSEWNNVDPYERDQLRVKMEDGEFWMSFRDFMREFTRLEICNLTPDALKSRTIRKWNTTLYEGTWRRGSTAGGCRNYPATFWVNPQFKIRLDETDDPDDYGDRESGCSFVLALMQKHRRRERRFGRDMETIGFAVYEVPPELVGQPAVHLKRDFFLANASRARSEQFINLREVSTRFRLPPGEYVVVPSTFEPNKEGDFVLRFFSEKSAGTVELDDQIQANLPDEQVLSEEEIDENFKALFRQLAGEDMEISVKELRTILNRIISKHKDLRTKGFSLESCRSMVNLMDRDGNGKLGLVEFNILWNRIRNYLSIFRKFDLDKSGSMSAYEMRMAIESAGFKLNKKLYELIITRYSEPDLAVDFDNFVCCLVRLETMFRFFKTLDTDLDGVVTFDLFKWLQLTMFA
T1 sequence (P04632 1-268 partner): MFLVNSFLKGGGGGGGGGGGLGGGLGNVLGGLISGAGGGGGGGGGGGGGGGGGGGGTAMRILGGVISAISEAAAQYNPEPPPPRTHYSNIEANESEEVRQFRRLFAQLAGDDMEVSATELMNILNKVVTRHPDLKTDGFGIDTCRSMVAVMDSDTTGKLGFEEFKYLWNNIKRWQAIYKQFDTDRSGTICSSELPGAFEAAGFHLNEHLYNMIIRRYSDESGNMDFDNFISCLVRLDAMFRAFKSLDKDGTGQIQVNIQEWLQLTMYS
The experiment in a line: Inhibition of cysteine protease activity: calpain I, Succ-Leu-Tyr-MNA substrate hydrolysis. In kind it is biochemical. As to conditions: for Percent inhibition @ 10 μM (Calpain): Table 2, 10 μM compound, values in brackets marked **. On the procedure:
To evaluate inhibitory activity, stock solutions (40 times concentrated) of each compound to be tested were prepared in 100% anhydrous DMSO and 5 μl of each inhibitor preparation were aliquoted into each of three wells of a 96-well plate. Recombinant human calpain I, prepared by the method of Meyer et al. (Biochem. J. 1996, 314: 511–519; incorporated herein by reference in its entirety), was diluted into assay buffer (i.e., 50 mM Tris, 50 mM NaCl, 1 mM EDTA, 1 mM EGTA, and 5 mM β-mercaptoethanol, pH 7.5, including 0.2 mM Succ-Leu-Tyr-MNA), and 175 μl was aliquoted into the same wells containing the independent inhibitor stocks as well as to positive control wells containing 5 μl DMSO, but no compound. To start the reaction, 20 μl of 50 mM CaCl2 in assay buffer was added to all wells of the plate, excepting three, which were used as background signal baseline controls. Substrate hydrolysis was monitored every 5 minutes for a total of 30 minutes. Substrate hydrolysis in the absence of inhibitor was linear for up to 15 minutes.
Inhibition of calpain I activity was calculated as the percent decrease in the rate of substrate hydrolysis in the presence of inhibitor relative to the rate in its absence. Comparison between the inhibited and control rates was made within the linear range for substrate hydrolysis. The IC50s of inhibitors (concentration yielding 50% inhibition) were determined from the percent decrease in rates of substrate hydrolysis in the presence of five to seven different concentrations of the test compound. The results were plotted as percent inhibition versus log inhibitor concentration, and the IC50 was calculated by fitting the data to the four-parameter logistic equation shown below using the program GraphPad Prism (GraphPad Software, Inc., San Diego, Calif.). y=d+[(a−d)/(1+(x/c)^b)]
The parameters a, b, c, and d are defined as follows: a is % inhibition in the absence of inhibitor, b is the slope, c is the IC50, and d is the % inhibition at an infinite concentration of inhibitor.

Where [1] appears, read: Table 5, achiral P2 mimetic α-ketoamides.

A word on the IC50: it is the concentration that gives 50% inhibition. As for `CS(=O)(=O)N[C@H](COCc1ccccc1)C(=O)N[C@@H](Cc1ccccc1)C(=O)C(=O)NCCNS(=O)(=O)c1ccc(CN2CCOCC2)cc1` [Compound 57], the IC50 (Table 4, α-ketoamides) turned out to be 18 nM.
In the case of `O=C(NCCNS(=O)(=O)c1ccc(-c2ccccn2)s1)C(=O)[C@H](Cc1ccccc1)NC(=O)c1ccccc1` [Compound 117], under setting [1], the IC50 came out at 800 nM.
As for `CN(C)c1cccc2c(S(=O)(=O)NCCNC(=O)C(=O)[C@H](Cc3ccccc3)NC(=O)[C@@H](COCc3ccccc3)NS(C)(=O)=O)cccc12` [Compound 86], the IC50 (Table 4, α-ketoamides) was found to be 49 nM.
Regarding `CS(=O)(=O)NC(COCc1ccccc1)C(=O)NC(Cc1ccccc1)C(=O)C(=O)NCCNS(=O)(=O)c1ccc(-c2cccc([N+](=O)[O-])c2)s1` (mixture of isomers) [Compound 74], under “Table 4, α-ketoamides”, the IC50 is 15 nM.
On the same count and under the same terms, as for `CS(=O)(=O)N[C@H](COCc1ccccc1)C(=O)N[C@@H](Cc1ccccc1)C(=O)C(=O)NCCNS(=O)(=O)c1ccc(-c2ccccc2CN2CCOCC2)s1` [Compound 93], the figure is 40 nM; as for `C[C@H](OCc1ccccc1)[C@@H](NS(C)(=O)=O)C(=O)N[C@@H](Cc1ccccc1)C(=O)C(=O)NCCNS(=O)(=O)c1ccc(-c2ccccn2)s1` [Compound 66], 12 nM; as for `CN1CCN(Cc2cccc(-c3ccc(S(=O)(=O)NCCNC(=O)C(=O)[C@H](Cc4ccccc4)NC(=O)[C@@H](COCc4ccccc4)NS(C)(=O)=O)s3)c2)CC1` [Compound 58], 21 nM.
Turning to `O=C(NCCNS(=O)(=O)c1ccccc1)C(=O)[C@H](Cc1ccccc1)NC(=O)[C@H](Cc1ccccc1)NS(=O)(=O)c1ccccc1` [Compound 30], the “Percent inhibition @ 10 μM (Calpain)” value is reported as “(97%)”.
As to `CS(=O)(=O)N[C@H](COCc1ccccc1)C(=O)N[C@@H](Cc1ccccc1)C(=O)C(=O)NCCNS(=O)(=O)c1cccnc1` [Compound 31], the IC50 (Table 2, linear α-ketoamides) was found to be 29 nM.
For the compound `COCC1CCCN1Cc1ccc(S(=O)(=O)NCCNC(=O)C(=O)[C@H](Cc2ccccc2)NC(=O)[C@@H](COCc2ccccc2)NS(C)(=O)=O)cc1` (stereo partly drawn) [Compound 91], under “Table 4, α-ketoamides”, the IC50 stood at 19 nM.
For the compound `CS(=O)(=O)NC(COCc1ccccc1)C(=O)NC(Cc1ccccc1)C(=O)C(=O)NCCNS(=O)(=O)c1ccc(-c2cccc(N)c2)s1` (mixture of isomers) [Compound 44], the IC50 (Table 2, linear α-ketoamides) turned out to be 31 nM.
The same measure, in the same setting: the same measure for `CSc1nccc(-c2ccc(S(=O)(=O)NCCNC(=O)C(=O)[C@H](Cc3ccccc3)NC(=O)[C@@H](COCc3ccccc3)NS(C)(=O)=O)s2)n1` [Compound 33]: 17 nM.
`CS(=O)(=O)N[C@H](COCc1ccccc1)C(=O)N[C@@H](Cc1ccccc1)C(=O)C(=O)NCCNS(=O)(=O)c1ccc(-c2ccc(C=O)cc2)s1` [Compound 90]: the IC50 (Table 4, α-ketoamides) is 17 nM.
Still for that read-out and setting: the same measure for `CS(=O)(=O)N[C@H](COCc1ccccc1)C(=O)N[C@@H](Cc1ccccc1)C(=O)C(=O)NCCNS(=O)(=O)c1ccc(-c2cccc(CN3CCC3)c2)s1` [Compound 106]: 44 nM.
Regarding `CC(C)CC(=O)N[C@@H](Cc1ccccc1)C(=O)C(=O)NCCNS(=O)(=O)c1ccc(-c2ccccn2)s1` [Compound 144], the 50% inhibitory concentration (IC50) under setting [1] is 590 nM.
For `CS(=O)(=O)N[C@H](COCc1ccccc1)C(=O)N[C@@H](Cc1ccccc1)C(=O)C(=O)NCCNS(=O)(=O)c1ccc(Br)s1` [Compound 39], the IC50 (Table 2, linear α-ketoamides) came out at 22 nM.
On to `CC(C)(C)OC(=O)NC1CCCC(NC(=O)C(=O)[C@H](Cc2ccccc2)NC(=O)[C@@H](COCc2ccccc2)NS(C)(=O)=O)C1` (stereo partly drawn) [Compound 55], for which the IC50 (Table 4, α-ketoamides) turned out to be 42 nM.
Turning to `CS(=O)(=O)NCCNC(=O)C(=O)[C@H](Cc1ccccc1)NC(=O)[C@@H](COCc1ccccc1)NS(C)(=O)=O` [Compound 35], the IC50 (Table 2, linear α-ketoamides) was 91 nM.
Consider `CS(=O)(=O)N[C@H](COCc1ccccc1)C(=O)N[C@@H](Cc1ccccc1)C(=O)C(=O)NCCCS(=O)(=O)N1CCOCC1` [Compound 81], for which, for the setting “Table 4, α-ketoamides”, the IC50 was determined as 124 nM.
`CS(=O)(=O)NC(COCc1ccccc1)C(=O)NC(Cc1ccccc1)C(=O)C(=O)NCCNS(=O)(=O)c1ccc(-c2cccc(C#N)c2)s1` (mixture of isomers) [Compound 110]: the half-inhibitory concentration (IC50) (Table 4, α-ketoamides) is 11 nM.
Turning to `CC(C)C[C@H](NC(=O)OCc1ccccc1)C(=O)N[C@@H](Cc1ccccc1)C(=O)C(=O)NCCNS(=O)(=O)c1ccccc1` [Compound 17], the concentration for half-maximal inhibition (IC50) (Table 2, linear α-ketoamides) is 11 nM.
On to `COCCN(CCOC)Cc1cccc(-c2ccc(S(=O)(=O)NCCNC(=O)C(=O)[C@H](Cc3ccccc3)NC(=O)[C@@H](COCc3ccccc3)NS(C)(=O)=O)s2)c1` [Compound 109], for which the IC50 (Table 4, α-ketoamides) was determined as 22 nM.
On the same count and under the same terms, the same measure for `CCN(CC)Cc1cccc(-c2ccc(S(=O)(=O)NCCNC(=O)C(=O)[C@H](Cc3ccccc3)NC(=O)[C@@H](COCc3ccccc3)NS(C)(=O)=O)s2)c1` [Compound 101]: 22 nM.
`O=C(NCCNS(=O)(=O)c1ccccc1)C(=O)[C@H](Cc1ccccc1)NC(=O)[C@@H]1CCCN1S(=O)(=O)c1ccccc1` [Compound 13]: the “Percent inhibition @ 10 μM (Calpain)” value is “(78%)”.
For `CC(C)C(=O)N[C@@H](Cc1ccccc1)C(=O)C(=O)NCCNS(=O)(=O)c1ccc(-c2ccccn2)s1` [Compound 143], the IC50 under setting [1] turned out to be 1500 nM.
Consider `CC(=O)Nc1cccc(-c2ccc(S(=O)(=O)NCCNC(=O)C(=O)C(Cc3ccccc3)NC(=O)C(COCc3ccccc3)NS(C)(=O)=O)s2)c1` (mixture of isomers) [Compound 76], for which, under “Table 4, α-ketoamides”, the IC50 was 11 nM.
Still for that read-out and setting: the same measure for `CS(=O)(=O)N[C@H](COCc1ccccc1)C(=O)N[C@@H](Cc1ccccc1)C(=O)C(=O)NCCNS(=O)(=O)c1cccc(-c2csc(N)n2)c1` [Compound 51]: 29 nM.
For the compound `CC(C)CCC(=O)N[C@@H](Cc1ccccc1)C(=O)C(=O)NCCNS(=O)(=O)c1ccc(-c2cccc(C#N)c2)s1` [Compound 150], the IC50 under setting [1] came to 15 nM.
Consider `CN(C)Cc1cccc(-c2ccc(S(=O)(=O)NCCNC(=O)C(=O)[C@H](Cc3ccccc3)NC(=O)[C@@H](COCc3ccccc3)NS(C)(=O)=O)s2)c1` [Compound 54], for which the half-maximal inhibitory concentration (IC50) (Table 4, α-ketoamides) came out at 12 nM.
Same read-out and setting: as for `CN(CCNC(=O)C(=O)[C@H](Cc1ccccc1)NC(=O)[C@@H](COCc1ccccc1)NS(C)(=O)=O)S(=O)(=O)c1ccc(-c2cccc(C=O)c2)s1` [Compound 65], the figure is 19 nM.
`C[C@@H](CNS(=O)(=O)c1ccccc1)NC(=O)C(=O)[C@H](Cc1ccccc1)NC(=O)[C@@H](COCc1ccccc1)NS(C)(=O)=O` [Compound 49]: for the setting “Table 3, branched-chain α-ketoamides”, the 50% inhibitory concentration (IC50) is 32 nM.
For `COc1cccc(OC)c1C(=O)N[C@@H](Cc1ccccc1)C(=O)C(=O)NCCNS(=O)(=O)c1ccc(-c2ccon2)s1` [Compound 138], under setting [1], the IC50 was found to be 4000 nM.
For `CS(=O)(=O)N[C@H](COCc1ccccc1)C(=O)N[C@@H](Cc1ccccc1)C(=O)C(=O)NCCCS(=O)(=O)Nc1ccccc1` [Compound 62], for the setting “Table 4, α-ketoamides”, the IC50 was found to be 18 nM.
For `Cc1ccc(Cl)c(C(=O)N[C@@H](Cc2ccccc2)C(=O)C(=O)NCCNS(=O)(=O)c2ccc(-c3ccccn3)s2)c1Cl` [Compound 119], under setting [1], the IC50 is 61 nM.
Turning to `CN(CCNC(=O)C(=O)[C@H](Cc1ccccc1)NC(=O)[C@@H](COCc1ccccc1)NS(C)(=O)=O)S(=O)(=O)c1ccccc1` [Compound 50], the “Calpain percent inhibition, value in brackets marked **” value (Table 3, concentration not given) is listed as “(100%)”.
Turning to `CS(=O)(=O)NC(COCc1ccccc1)C(=O)NC(Cc1ccccc1)C(=O)C(=O)NC1CCN(S(=O)(=O)c2ccc(CN3CCOCC3)cc2)CC1` (mixture of isomers) [Compound 78], the half-inhibitory concentration (IC50) (Table 4, α-ketoamides) amounted to 48 nM.
